The test system of test [1] is Gram+ bacteria. The note with it: ref [4],[7]; cited from earlier work.
The subject of test [2] is E. coli (J-53). The note with it: ref [4],[7]; cited from earlier work.
Test [3] deals with VRE. Briefly: MIC determination in 96-well plates. It is filed as cell-based, E. faecium. The note with it: Enterococcus, read-out: MIC VRE.

Molecules are shown by their SMILES.

`CCc1cc(Nc2cc(=O)n(CCCCO)c(=O)[nH]2)ccc1C` [Compound 1, HB-EMAU]: the “MIC values against various organisms” value in test [1] is 2.5 to 5 µg/mL. In addition, the “activity against the Gram- bacterium E. coli” value in test [2] was “inactive”.

Regarding `CCc1cc(Nc2nc(O)c3ncn(CCCCO)c3n2)ccc1C` [Compound 2b], the MIC (as a rule, the least concentration at which growth counts as inhibited) in test [3] was greater than 80 µg/mL. `CCc1cc(Nc2cc3c(ncn3CCCCOC)c(=O)[nH]2)ccc1C` [Compound 19b]: the MIC in test [3] was greater than 80 µg/mL. Turning to `CCc1cc(Nc2cc3c(ncn3CCCCN3CCOCC3)c(=O)[nH]2)ccc1C` [Compound 21b], the MIC in test [3] is greater than 80 µg/mL.
